Tests used:
[1] = molecular target: Corticotropin-releasing factor receptor 2 (Mus musculus) (UniProt Q60748); assay: In vitro agonistic activity against mouse corticotropin releasing factor 2 receptor; type: functional
[2] = molecular target: T1, Corticotropin-releasing factor receptor 1 (Mus musculus) (UniProt P35347); assay: In vitro agonistic activity against mouse corticotropin releasing factor 1 receptor; type: functional
T1 sequence (whole entry): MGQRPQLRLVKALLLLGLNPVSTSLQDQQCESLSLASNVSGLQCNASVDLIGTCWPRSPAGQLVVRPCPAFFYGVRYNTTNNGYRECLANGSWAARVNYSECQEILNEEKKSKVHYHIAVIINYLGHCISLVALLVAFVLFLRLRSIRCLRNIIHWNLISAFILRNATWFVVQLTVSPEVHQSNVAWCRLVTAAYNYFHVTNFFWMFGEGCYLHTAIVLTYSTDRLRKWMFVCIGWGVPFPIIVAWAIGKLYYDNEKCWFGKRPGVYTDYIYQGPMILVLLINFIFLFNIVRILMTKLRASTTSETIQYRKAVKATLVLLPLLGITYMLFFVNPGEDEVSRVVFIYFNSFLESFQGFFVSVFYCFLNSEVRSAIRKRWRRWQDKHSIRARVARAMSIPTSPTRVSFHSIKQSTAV

Mus musculus = species on record: Mus musculus; assay: Selectivity ratio of EC50s for mouse corticotropin releasing factor receptors 1 and 2

Sequence of Corticotropin-releasing factor receptor 2 (Mus musculus) (Q60748 whole entry): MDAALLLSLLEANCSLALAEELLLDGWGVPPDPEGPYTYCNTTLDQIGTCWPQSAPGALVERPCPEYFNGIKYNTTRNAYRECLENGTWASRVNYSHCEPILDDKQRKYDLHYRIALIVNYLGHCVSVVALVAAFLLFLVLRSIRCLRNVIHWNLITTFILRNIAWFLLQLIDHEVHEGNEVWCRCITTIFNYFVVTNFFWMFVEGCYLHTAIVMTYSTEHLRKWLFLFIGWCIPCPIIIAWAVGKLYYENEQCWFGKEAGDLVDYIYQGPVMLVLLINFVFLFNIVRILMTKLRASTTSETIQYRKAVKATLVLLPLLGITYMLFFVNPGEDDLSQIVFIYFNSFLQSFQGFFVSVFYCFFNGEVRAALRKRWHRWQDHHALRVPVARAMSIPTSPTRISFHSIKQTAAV

Row | SMILES | Emax [1] | Emax [2] | Selectivity (Mus musculus)
1 | CC[C@H](C)[C@H](NC(=O)[C@@H](NC(=O)[C@H](CC(=O)O)NC(=O)[C@H](CC(C)C)NC(=O)[C@H](CC(C)C)NC(=O)[C@H](CC(C)C)NC(=O)[C@H](CCCN=C(N)N)NC(=O)[C@H](CC(N)=O)NC(=O)[C@H](CC(N)=O)NC(=O)[C@H](C)NC(=O)[C@H](C)NC(=O)[C@H](CCC(N)=O)NC(=O)[C@H](CCC(N)=O)NC(=O)[C@H](CCCCN)NC(=O)[C@H](CCC(=O)O)NC(=O)[C@H](CCCCN)NC(=O)[C@H](CCC(=O)O)NC(=O)[C@H](CCC(N)=O)NC(=O)[C@H](CCCCN)NC(=O)[C@H](CCC(=O)O)NC(=O)[C@@H](NC(=O)[C@H](CCC(=O)O)NC(=O)[C@@H](NC(=O)[C@H](CCSC)NC(=O)[C@H](CCCCN)NC(=O)[C@H](CCCN=C(N)N)NC(=O)[C@H](CC(C)C)NC(=O)[C@H](CC(C)C)NC(=O)[C@H](CCC(N)=O)NC(=O)[C@H](Cc1ccc(O)cc1)NC(=O)[C@@H]1CCCN1C(=O)[C@H](CC(C)C)NC(=O)[C@H](CC(=O)O)NC(=O)[C@@H](NC(=O)[C@H](CO)NC(=O)[C@@H](NC(=O)[C@@H]1CCCN1C(=O)[C@@H]1CCCN1C(=O)CNC(=O)[C@@H]1CCC(=O)N1)[C@@H](C)CC)[C@@H](C)CC)[C@@H](C)CC)[C@@H](C)CC)[C@@H](C)O)C(=O)O | 99% | 100% | 47
2 | CC[C@H](C)[C@H](NC(=O)[C@@H](NC(=O)[C@H](CC(=O)O)NC(=O)[C@H](CC(C)C)NC(=O)[C@H](CC(C)C)NC(=O)[C@H](CC(C)C)NC(=O)[C@H](CCCN=C(N)N)NC(=O)[C@H](CC(N)=O)NC(=O)[C@H](CC(N)=O)NC(=O)[C@H](C)NC(=O)[C@H](C)NC(=O)[C@H](CCC(N)=O)NC(=O)[C@H](CCC(N)=O)NC(=O)[C@H](CCCCN)NC(=O)[C@H](CCC(=O)O)NC(=O)[C@H](CCCCN)NC(=O)[C@H](CCC(=O)O)NC(=O)[C@H](CCC(N)=O)NC(=O)[C@H](CCCCN)NC(=O)[C@H](CCC(=O)O)NC(=O)[C@@H](NC(=O)[C@H](CCC(=O)O)NC(=O)[C@@H](NC(=O)[C@H](CCSC)NC(=O)[C@H](CCCCN)NC(=O)[C@H](CCCN=C(N)N)NC(=O)[C@H](CC(C)C)NC(=O)[C@H](CC(C)C)NC(=O)[C@H](Cc1ccccc1)NC(=O)[C@H](Cc1ccc(O)cc1)NC(=O)[C@@H]1CCCN1C(=O)[C@H](CC(C)C)NC(=O)[C@H](CC(=O)O)NC(=O)[C@@H](NC(=O)[C@H](CO)NC(=O)[C@@H](NC(=O)[C@@H]1CCCN1C(=O)[C@@H]1CCCN1C(=O)CNC(=O)[C@@H]1CCC(=O)N1)[C@@H](C)CC)[C@@H](C)CC)[C@@H](C)CC)[C@@H](C)CC)[C@@H](C)O)C(=O)O | 98% | 81% | 16

Results, then the compound that gave them:

Row | Emax [1] | Emax [2] | Selectivity (Mus musculus) | SMILES
3 | 100% | 48% | > 49 | CC[C@H](C)[C@H](NC(=O)[C@@H](NC(=O)[C@H](CC(=O)O)NC(=O)[C@H](CC(C)C)NC(=O)[C@H](CC(C)C)NC(=O)[C@H](CC(C)C)NC(=O)[C@H](CCCN=C(N)N)NC(=O)[C@H](CC(N)=O)NC(=O)[C@H](CC(N)=O)NC(=O)[C@H](C)NC(=O)[C@H](C)NC(=O)[C@H](CCC(N)=O)NC(=O)[C@H](CCC(N)=O)NC(=O)[C@H](CCCCN)NC(=O)[C@H](CCC(=O)O)NC(=O)[C@H](CCCCN)NC(=O)[C@H](CCC(=O)O)NC(=O)[C@H](CCC(N)=O)NC(=O)[C@H](CCCCN)NC(=O)[C@H](CCC(=O)O)NC(=O)[C@@H](NC(=O)[C@H](CCC(=O)O)NC(=O)[C@@H](NC(=O)[C@H](CCSC)NC(=O)[C@H](CCCCN)NC(=O)[C@H](CCCN=C(N)N)NC(=O)[C@H](CC(C)C)NC(=O)[C@H](CC(C)C)NC(=O)[C@H](CC(C)C)NC(=O)[C@@H](NC(=O)[C@@H]1CCCN1C(=O)[C@H](CC(C)C)NC(=O)[C@H](CC(=O)O)NC(=O)[C@@H](NC(=O)[C@H](CO)NC(=O)[C@@H](NC(=O)[C@@H]1CCCN1C(=O)[C@@H]1CCCN1C(=O)CNC(=O)[C@@H]1CCC(=O)N1)[C@@H](C)CC)[C@@H](C)CC)[C@@H](C)O)[C@@H](C)CC)[C@@H](C)CC)[C@@H](C)O)C(=O)O
4 | 95% | 99% | 9 | CC[C@H](C)[C@H](NC(=O)[C@@H](NC(=O)[C@H](CC(=O)O)NC(=O)[C@H](CC(C)C)NC(=O)[C@H](CC(C)C)NC(=O)[C@H](CC(C)C)NC(=O)[C@H](CCCN=C(N)N)NC(=O)[C@H](CC(N)=O)NC(=O)[C@H](CC(N)=O)NC(=O)[C@H](C)NC(=O)[C@H](C)NC(=O)[C@H](CCC(N)=O)NC(=O)[C@H](CCC(N)=O)NC(=O)[C@H](CCCCN)NC(=O)[C@H](CCC(=O)O)NC(=O)[C@H](CCCCN)NC(=O)[C@H](CCC(=O)O)NC(=O)[C@H](CCC(N)=O)NC(=O)[C@H](CCCCN)NC(=O)[C@H](CCC(=O)O)NC(=O)[C@@H](NC(=O)[C@H](CCC(=O)O)NC(=O)[C@@H](NC(=O)[C@H](CCSC)NC(=O)[C@H](CCCCN)NC(=O)[C@H](CCCN=C(N)N)NC(=O)[C@H](CC(C)C)NC(=O)[C@H](CC(C)C)NC(=O)[C@H](CCC(=O)O)NC(=O)[C@H](CC(C)C)NC(=O)[C@@H]1CCCN1C(=O)[C@H](CC(C)C)NC(=O)[C@H](CC(=O)O)NC(=O)[C@@H](NC(=O)[C@H](CO)NC(=O)[C@@H](NC(=O)[C@@H]1CCCN1C(=O)[C@@H]1CCCN1C(=O)CNC(=O)[C@@H]1CCC(=O)N1)[C@@H](C)CC)[C@@H](C)CC)[C@@H](C)CC)[C@@H](C)CC)[C@@H](C)O)C(=O)O
5 | 93% | 99% | 15 | CC[C@H](C)[C@H](NC(=O)[C@@H](NC(=O)[C@H](CC(=O)O)NC(=O)[C@H](CC(C)C)NC(=O)[C@H](CC(C)C)NC(=O)[C@H](CC(C)C)NC(=O)[C@H](CCCN=C(N)N)NC(=O)[C@H](CC(N)=O)NC(=O)[C@H](CC(N)=O)NC(=O)[C@H](C)NC(=O)[C@H](C)NC(=O)[C@H](CCC(N)=O)NC(=O)[C@H](CCC(N)=O)NC(=O)[C@H](CCCCN)NC(=O)[C@H](CCC(=O)O)NC(=O)[C@H](CCCCN)NC(=O)[C@H](CCC(=O)O)NC(=O)[C@H](CCC(N)=O)NC(=O)[C@H](CCCCN)NC(=O)[C@H](CCC(=O)O)NC(=O)[C@@H](NC(=O)[C@H](CCC(=O)O)NC(=O)[C@@H](NC(=O)[C@H](CCSC)NC(=O)[C@H](CCCCN)NC(=O)[C@H](CCCN=C(N)N)NC(=O)[C@H](CC(C)C)NC(=O)[C@H](CC(C)C)NC(=O)[C@H](Cc1ccc(O)cc1)NC(=O)[C@H](Cc1ccc(O)cc1)NC(=O)[C@@H]1CCCN1C(=O)[C@H](CC(C)C)NC(=O)[C@H](CC(=O)O)NC(=O)[C@@H](NC(=O)[C@H](CO)NC(=O)[C@@H](NC(=O)[C@@H]1CCCN1C(=O)[C@@H]1CCCN1C(=O)CNC(=O)[C@@H]1CCC(=O)N1)[C@@H](C)CC)[C@@H](C)CC)[C@@H](C)CC)[C@@H](C)CC)[C@@H](C)O)C(=O)O

From ChEMBL document CHEMBL1139487, “Discovery of corticotropin releasing factor 2 receptor selective sauvagine analogues for treatment of skeletal muscle atrophy” (J Med Chem, 2005)
